According to US9840467B2, “Arylhydrazides containing a 2-pyridone moiety as selective antibacterial agents” (ABAC THERAPEUTICS, S.L., priority 2014, dated 2017):
≈ marks a conversion by molar mass, not a printed value. Read-outs that look alike come from different tables or passages of the source.

Key:
A. baumannii = assay: MIC, CLSI microtiter dilution, A. baumannii; format: cell-based, Acinetobacter baumannii
Method: (§1) The products of the present invention were tested for their activity against A. baumannii as well as against the following bacteria: Staphylococcus aureus (S. aureus), Streptococcus pneumoniae (S. pneumoniae), Enterococcus faecium (E. faecium), Pseudomonas aeruginosa (P. aeruginosa), Klebsiella pneumoniae (K. pneumoniae.), Enterobacter aerogenes (E. aerogenes) and Escherichia coli (E. coli).
(§2) Minimal inhibitory concentrations (MICs) were determined using a standard microtiter dilution method, according to the Clinical and Laboratory Standards Institute (CLSI) procedures, in particular according to M07-A9: “Methods for Dilution Antimicrobial Susceptibility Tests for Bacteria That Grow Aerobically; Approved Standard—Ninth Edition”.
(§3) Briefly, compounds were dissolved with dimethyl sulfoxide (DMSO) at 12.8 mg/mL. Serial two-fold dilutions of compounds were performed in DMSO and 1 μl of each dilution were transferred into microtiter culture plates, followed by 100 μl of inoculated culture media to give a final microorganism concentration of 5×10^5 colony-forming units/mL. Plates were incubated at 37° C. for 24 hours and MICs determined as the lowest compound concentration that inhibited growth. Media used in determinations were Cation adjusted Mueller-Hinton Broth for all the microorganisms except for S. pneumoniae and E. faecium whose culture media were supplemented with 2.5% of lysed horse blood. Incubations were performed at air atmosphere except S. pneumoniae cultures that were incubated with 5% CO2 atmosphere.

S. aureus = assay: MIC, CLSI microtiter dilution, S. aureus; format: cell-based, Staphylococcus aureus
Method: as §1, §2, §3

S. pneumoniae = assay: MIC, CLSI microtiter dilution, S. pneumoniae; format: cell-based, Streptococcus pneumoniae
Method: as §1, §2, §3

E. faecium = assay: MIC, CLSI microtiter dilution, E. faecium; format: cell-based, Enterococcus faecium
Method: as §1, §2, §3

P. aeruginosa = assay: MIC, CLSI microtiter dilution, P. aeruginosa; format: cell-based, Pseudomonas aeruginosa
Method: as §1, §2, §3

K. pneumoniae = assay: MIC, CLSI microtiter dilution, K. pneumoniae; format: cell-based, Klebsiella pneumoniae
Method: as §1, §2, §3

E. aerogenes = assay: MIC, CLSI microtiter dilution, E. aerogenes; format: cell-based, Enterobacter aerogenes
Method: as §1, §2, §3

E. coli = assay: MIC, CLSI microtiter dilution, E. coli; format: cell-based, Escherichia coli
Method: as §1, §2, §3

[1] = Acinetobacter baumannii, A. baumannii, 37° C., 24 hours, Cation adjusted Mueller-Hinton Broth, read-out: MIC
[2] = Staphylococcus aureus, S. aureus, 37° C., 24 hours, Cation adjusted Mueller-Hinton Broth, read-out: MIC
[3] = Streptococcus pneumoniae, S. pneumoniae, 37° C., 24 hours, 2.5% lysed horse blood, 5% CO2, read-out: MIC
[4] = Enterococcus faecium, E. faecium, 37° C., 24 hours, 2.5% lysed horse blood, read-out: MIC
[5] = Pseudomonas aeruginosa, P. aeruginosa, 37° C., 24 hours, Cation adjusted Mueller-Hinton Broth, read-out: MIC
[6] = Klebsiella pneumoniae, K. pneumoniae, 37° C., 24 hours, Cation adjusted Mueller-Hinton Broth, read-out: MIC
[7] = Klebsiella aerogenes, E. aerogenes, 37° C., 24 hours, Cation adjusted Mueller-Hinton Broth, read-out: MIC
[8] = Escherichia coli, E. coli, 37° C., 24 hours, Cation adjusted Mueller-Hinton Broth, read-out: MIC

| Compound | MIC (A. baumannii; [1]) | MIC (S. aureus; [2]) | MIC (S. pneumoniae; [3]) | MIC (E. faecium; [4]) | MIC (P. aeruginosa; [5]) | MIC (K. pneumoniae; [6]) | MIC (E. aerogenes; [7]) | MIC (E. coli; [8]) | MIC (A. baumannii; Acinetobacter baumannii, 24 h) | MIC (S. aureus; Staphylococcus aureus, 24 h) | MIC (S. pneumoniae; Streptococcus pneumoniae, 24 h) | MIC (E. faecium; Enterococcus faecium, 24 h) | MIC (P. aeruginosa; Pseudomonas aeruginosa, 24 h) | MIC (K. pneumoniae; Klebsiella pneumoniae, 24 h) | MIC (E. aerogenes; Klebsiella aerogenes, 24 h) | MIC (E. coli; Escherichia coli, 24 h) | further results |
| --- | --- | --- | --- | --- | --- | --- | --- | --- | --- | --- | --- | --- | --- | --- | --- | --- | --- |
| 1-Cyclopropylmethyl-6-oxo-1,6-dihydro-pyridine-2-carboxylic acid N′-(4-fluorophenyl)-hydrazide [Ex. 6] | – | – | – | – | – | – | – | – | – | – | – | – | – | – | – | – | MIC (A. baumannii; A. baumannii, 37° C., 24 hours, Cation adjusted Mueller-Hinton Broth): <0.25 µg/mL; MIC (S. aureus; S. aureus, 37° C., 24 hours, Cation adjusted Mueller-Hinton Broth): >128 µg/mL; MIC (S. pneumoniae; S. pneumoniae, 37° C., 24 hours, 2.5% lysed horse blood, 5% CO2): >128 µg/mL; MIC (E. faecium; E. faecium, 37° C., 24 hours, 2.5% lysed horse blood): >128 µg/mL; MIC (P. aeruginosa; P. aeruginosa, 37° C., 24 hours, Cation adjusted Mueller-Hinton Broth): >128 µg/mL; MIC (K. pneumoniae; K. pneumoniae, 37° C., 24 hours, Cation adjusted Mueller-Hinton Broth): >128 µg/mL; MIC (E. aerogenes; E. aerogenes, 37° C., 24 hours, Cation adjusted Mueller-Hinton Broth): >128 µg/mL; MIC (E. coli; E. coli, 37° C., 24 hours, Cation adjusted Mueller-Hinton Broth): >128 µg/mL |
| Cn1c(C(=O)NNc2ccc(F)cc2)cccc1=O [Ex. 1, 1-Methyl-6-oxo-1,6-dihydro-pyridine-2-carboxylic acid N′-(4-fluoro-phenyl)-hydrazide] | 0.5 µg/mL (≈ 1.91 µM) | > 128 µg/mL | > 128 µg/mL | > 128 µg/mL | > 128 µg/mL | > 128 µg/mL | > 128 µg/mL | 64 µg/mL (≈ 245 µM) | – | – | – | – | – | – | – | – | – |
| CCn1c(C(=O)NNc2ccc(F)cc2)cccc1=O [Ex. 2, 1-Ethyl-6-oxo-1,6-dihydro-pyridine-2-carboxylic acid N′-(4-fluoro-phenyl)-hydrazide] | – | – | – | – | – | – | – | – | 1 µg/mL (≈ 3.63 µM) | > 128 µg/mL | > 128 µg/mL | > 128 µg/mL | > 128 µg/mL | > 128 µg/mL | > 128 µg/mL | > 128 µg/mL | – |
| COCCn1c(C(=O)NNc2ccc(F)cc2)cccc1=O [Ex. 3, 1-(2-methoxyethyl)-6-oxo-1,6-dihydro-pyridine-2-carboxylic acid N′-(4-fluorophenyl)-hydrazide] | – | – | – | – | – | – | – | – | < 0.25 µg/mL | > 128 µg/mL | > 128 µg/mL | > 128 µg/mL | > 128 µg/mL | > 128 µg/mL | > 128 µg/mL | > 128 µg/mL | – |
| O=C(NNc1ccc(F)cc1)c1cccc(=O)n1C(F)F [Ex. 4, 1-Difluoromethyl-6-oxo-1,6-dihydro-pyridine-2-carboxylic acid N′-(4-fluorophenyl)-hydrazide] | 1 µg/mL (≈ 3.36 µM) | > 128 µg/mL | > 128 µg/mL | > 128 µg/mL | > 128 µg/mL | > 128 µg/mL | > 128 µg/mL | > 128 µg/mL | – | – | – | – | – | – | – | – | – |
| O=C(NNc1ccc(F)cc1)c1cccc(=O)n1Cc1ccccc1 [Ex. 5, 1-Benzyl-6-oxo-1,6-dihydro-pyridine-2-carboxylic acid N′-(4-fluorophenyl)-hydrazide] | 0.25 µg/mL (≈ 0.741 µM) | > 128 µg/mL | > 128 µg/mL | > 128 µg/mL | > 128 µg/mL | > 128 µg/mL | > 128 µg/mL | > 128 µg/mL | – | – | – | – | – | – | – | – | – |
| C#CCn1c(C(=O)NNc2ccc(F)cc2)cccc1=O [Ex. 7, 1-(Prop-2-yn-1-yl)-6-oxo-1,6-dihydropyridine-2-carboxylic acid N′-(4-fluorophenyl)-hydrazide] | – | – | – | – | – | – | – | – | 0.25 µg/mL (≈ 0.876 µM) | > 128 µg/mL | > 128 µg/mL | > 128 µg/mL | > 128 µg/mL | > 128 µg/mL | > 128 µg/mL | > 128 µg/mL | – |
| O=C(NNc1ccc(F)cc1)c1cccc(=O)n1CC(F)(F)F [Ex. 8, 6-Oxo-1-(2,2,2-trifluoroethyl)-1,6-dihydropyridine-2-carboxylic acid N′-(4-fluorophenyl)-hydrazide] | – | – | – | – | – | – | – | – | 0.25 µg/mL (≈ 0.759 µM) | > 128 µg/mL | > 128 µg/mL | > 128 µg/mL | > 128 µg/mL | > 128 µg/mL | > 128 µg/mL | > 128 µg/mL | – |
| COc1ccc(NNC(=O)c2cccc(=O)n2C)cc1 [Ex. 9, 1-Methyl-6-oxo-1,6-dihydropyridine-2-carboxylic acid N′-(4-methoxyphenyl)-hydrazide] | – | – | – | – | – | – | – | – | 0.25 µg/mL (≈ 0.915 µM) | > 128 µg/mL | > 128 µg/mL | > 128 µg/mL | > 128 µg/mL | > 128 µg/mL | > 128 µg/mL | > 128 µg/mL | – |
| Cn1c(C(=O)NNc2ccc(Cl)cc2)cccc1=O [Ex. 10, 1-Methyl-6-oxo-1,6-dihydropyridine-2-carboxylic acid N′-(4-chlorophenyl)-hydrazide] | – | – | – | – | – | – | – | – | 0.25 µg/mL (≈ 0.9 µM) | > 128 µg/mL | > 128 µg/mL | > 128 µg/mL | > 128 µg/mL | > 128 µg/mL | > 128 µg/mL | > 128 µg/mL | – |
